# Laboratory results taken from patent US10301304B2, “Selective inhibitor of phosphatidylinositol 3-kinase-gamma” (VERTEX PHARMACEUTICALS INCORPORATED, priority 2013, dated 2019).
# Read-outs that look alike come from different tables or passages of the source.
# Tests used:
# PI3K-α = PI3K-α (Homo sapiens, UniProt P42336); experiment: PI3K Inhibition Assay; type: biochemical
# Description: (§1) Using a Biomek FX from Beckman Coulter, 1.5 μL of each of ten 2.5-fold serial dilutions of the compound of the invention in 100% DMSO was added to an individual well (hereafter, “test well”) in a 96 well polystyrene plate [Corning, Costar Item No. 3697]. One test well also contained 1.5 μL of DMSO with no compound. […] Using a Titertek Multidrop, 50 μL of Reaction Mix [100 mM HEPES pH 7.5, 50 mM NaCl, 10 mM DTT, 0.2 mg/mL BSA, 60 μM phosphatidylinositol(4,5)-bisphosphate diC16 (PI(4,5)P2; Avanti Polar Lipids, Cat. No. 840046P) and PI3K isoform of interest (see Table 1 for isoform concentrations)] was added to each well. To initiate the reaction, 50 μL of ATP Mix [20 mM MgCl2, 6 μM ATP (100 μCi/μmole ^33P-ATP was added to each well, followed by incubating the wells for 30 min. at 25° C. Final concentrations in each well were 50 mM HEPES 7.5, 10 mM MgCl2, 25 mM NaCl, 5 mM DTT, 0.1 mg/mL BSA, 30 μM PI(4,5)P2, 3 μM ATP, and the PI3K isoform of interest (see Table 2). Final compound concentrations in each well ranged from 10 μM to 1 nM.
# (§2) After incubation, the reactions in each well were quenched by addition of 50 μL of stop solution [30% TCA/Water, 10 mM ATP]. Each quenched reaction mixture was then transferred to a 96 well glass fiber filter plate [Corning, Costar Item No. 3511]. The plate was vacuum-filtered and washed three times with 150 μL of 5% TCA/water in a modified Bio-Tek Instruments ELX-405 Auto Plate Washer. 50 μL of scintillation fluid was added to each well and the plate read on a Perkin-Elmer TopCount™ NXT liquid scintillation counter to obtain ^33P-counts representing inhibition values.
# (§3) The value for the background well was subtracted from the value obtained for each test well and the data were fit to the competitive tight binding Ki equation described by Morrison and Stone, Comments Mol. Cell Biophys. 2: 347-368, 1985. […] In addition, isoform selectivity was also seen as Compound 1 was tested against PI3K-alpha, PI3K-beta, and PI3K-delta isoforms and was determined to have a selectivity of greater than 15 fold for PI3K-gamma as shown in Table 2.
# PI3K-β = PI3K-β (Homo sapiens, UniProt P42338); experiment: PI3K Inhibition Assay; type: biochemical
# Description: as §1, §2, §3
# PI3K-γ = PI3K-γ (Homo sapiens, UniProt P48736); experiment: PI3K Inhibition Assay; type: biochemical
# Description: as §1, §2, §3
# PI3K-δ = PI3K-δ (Homo sapiens, UniProt O00329); experiment: PI3K Inhibition Assay; type: biochemical
# Description: as §1, §2, §3
# MCF7 cells = experiment: MCF-7 Proliferation Assay; type: cell-based, human; details: for IC50: Homo sapiens
# Description: The PI3K-Akt signaling pathway regulates many normal cellular processes including cell proliferation, survival and growth that are critical for tumorigenesis. Dysregulation of the PI3K signaling pathway occurs commonly in human cancers. MCF7 is a human breast carcinoma cell line that has an activating E545K PI3Kα heterozygous mutation in the helical domain of the p110α protein leading to hyperactivity of the PI3K-alpha pathway. […] Compounds are added to MCF7 cells, cell proliferation/viability is measured 96 hours post compound treatment using cell titer-glo to measure the ATP content of the cells in the well. Lack of or reduced proliferation is a measure of the extent of PI3K-alpha inhibition.
# CYP1A2 = CYP1A2 (Homo sapiens, UniProt P05177); experiment: Metabolism by Recombinant CYP Enzymes; type: in vitro ADME; details: 1 μM, recombinant CYP1A2, NADPH
# Description: (§4) Microsomes that contained recombinant CYP enzymes (CYP1A2, 2B6, 2C8, 2C9, 2C19, 2D6, 2E1 and 3A4) were used to determine which CYP catalyzes the oxidation of Compound 1. Accordingly, Compound 1 (1 μM) was incubated with individual recombinant CYPs in the presence of the cofactor NADPH. The percent parent drug remaining at the end of the incubation period was determined by LC-MS/MS and compared to that present at the beginning.
# CYP2B6 = CYP2B6 (Homo sapiens, UniProt P20813); experiment: Metabolism by Recombinant CYP Enzymes; type: in vitro ADME; details: 1 μM, recombinant CYP2B6, NADPH
# Description: as §4
# CYP2C19 = CYP2C19 (Homo sapiens, UniProt P33261); experiment: Metabolism by Recombinant CYP Enzymes; type: in vitro ADME; details: 1 μM, recombinant CYP2C19, NADPH
# Description: as §4
# CYP2C8 = CYP2C8 (Homo sapiens, UniProt P10632); experiment: Metabolism by Recombinant CYP Enzymes; type: in vitro ADME; details: 1 μM, recombinant CYP2C8, NADPH
# Description: as §4
# CYP2C9 = CYP2C9 (Homo sapiens, UniProt P11712); experiment: Metabolism by Recombinant CYP Enzymes; type: in vitro ADME; details: 1 μM, recombinant CYP2C9, NADPH
# Description: as §4
# CYP2D6 = CYP2D6 (Homo sapiens, UniProt P10635); experiment: Metabolism by Recombinant CYP Enzymes; type: in vitro ADME; details: 1 μM, recombinant CYP2D6, NADPH
# Description: as §4
# CYP2E1 = CYP2E1 (Homo sapiens, UniProt P05181); experiment: Metabolism by Recombinant CYP Enzymes; type: in vitro ADME; details: 1 μM, recombinant CYP2E1, NADPH
# Description: as §4
# CYP3A4 = CYP3A4 (Homo sapiens, UniProt P08684); experiment: Metabolism by Recombinant CYP Enzymes; type: in vitro ADME; details: 1 μM
# Description: as §4
# Chain of PI3K-γ (P48736 whole entry, species assumed): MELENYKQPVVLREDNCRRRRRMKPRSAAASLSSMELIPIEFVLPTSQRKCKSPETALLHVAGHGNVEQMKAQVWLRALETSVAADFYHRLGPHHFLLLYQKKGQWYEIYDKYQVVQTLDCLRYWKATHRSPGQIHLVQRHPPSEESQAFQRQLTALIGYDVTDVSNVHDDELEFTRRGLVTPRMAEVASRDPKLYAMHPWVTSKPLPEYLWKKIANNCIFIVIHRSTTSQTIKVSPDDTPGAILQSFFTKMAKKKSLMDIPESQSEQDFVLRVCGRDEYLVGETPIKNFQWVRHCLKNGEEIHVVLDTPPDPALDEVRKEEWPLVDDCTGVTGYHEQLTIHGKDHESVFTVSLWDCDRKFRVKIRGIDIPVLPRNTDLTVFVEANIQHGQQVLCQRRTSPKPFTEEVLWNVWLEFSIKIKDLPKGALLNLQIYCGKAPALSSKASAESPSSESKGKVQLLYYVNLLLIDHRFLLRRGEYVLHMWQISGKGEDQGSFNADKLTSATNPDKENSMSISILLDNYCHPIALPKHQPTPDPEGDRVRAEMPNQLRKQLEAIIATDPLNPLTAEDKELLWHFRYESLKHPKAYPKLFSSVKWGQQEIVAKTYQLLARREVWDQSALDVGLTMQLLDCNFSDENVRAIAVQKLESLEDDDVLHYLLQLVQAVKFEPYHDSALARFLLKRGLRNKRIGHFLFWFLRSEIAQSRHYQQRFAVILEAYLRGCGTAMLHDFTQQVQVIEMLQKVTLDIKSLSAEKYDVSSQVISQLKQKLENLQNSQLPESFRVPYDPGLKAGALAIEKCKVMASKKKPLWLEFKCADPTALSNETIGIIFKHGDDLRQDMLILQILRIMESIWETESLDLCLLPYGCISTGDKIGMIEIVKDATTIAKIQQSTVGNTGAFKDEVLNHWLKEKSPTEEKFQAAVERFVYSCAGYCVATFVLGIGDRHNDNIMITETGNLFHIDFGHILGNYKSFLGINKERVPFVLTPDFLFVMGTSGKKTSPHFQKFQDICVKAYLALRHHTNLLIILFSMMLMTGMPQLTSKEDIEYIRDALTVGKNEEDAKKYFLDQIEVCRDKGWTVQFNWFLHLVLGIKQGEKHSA
# Chain of PI3K-δ (O00329 whole entry, species assumed): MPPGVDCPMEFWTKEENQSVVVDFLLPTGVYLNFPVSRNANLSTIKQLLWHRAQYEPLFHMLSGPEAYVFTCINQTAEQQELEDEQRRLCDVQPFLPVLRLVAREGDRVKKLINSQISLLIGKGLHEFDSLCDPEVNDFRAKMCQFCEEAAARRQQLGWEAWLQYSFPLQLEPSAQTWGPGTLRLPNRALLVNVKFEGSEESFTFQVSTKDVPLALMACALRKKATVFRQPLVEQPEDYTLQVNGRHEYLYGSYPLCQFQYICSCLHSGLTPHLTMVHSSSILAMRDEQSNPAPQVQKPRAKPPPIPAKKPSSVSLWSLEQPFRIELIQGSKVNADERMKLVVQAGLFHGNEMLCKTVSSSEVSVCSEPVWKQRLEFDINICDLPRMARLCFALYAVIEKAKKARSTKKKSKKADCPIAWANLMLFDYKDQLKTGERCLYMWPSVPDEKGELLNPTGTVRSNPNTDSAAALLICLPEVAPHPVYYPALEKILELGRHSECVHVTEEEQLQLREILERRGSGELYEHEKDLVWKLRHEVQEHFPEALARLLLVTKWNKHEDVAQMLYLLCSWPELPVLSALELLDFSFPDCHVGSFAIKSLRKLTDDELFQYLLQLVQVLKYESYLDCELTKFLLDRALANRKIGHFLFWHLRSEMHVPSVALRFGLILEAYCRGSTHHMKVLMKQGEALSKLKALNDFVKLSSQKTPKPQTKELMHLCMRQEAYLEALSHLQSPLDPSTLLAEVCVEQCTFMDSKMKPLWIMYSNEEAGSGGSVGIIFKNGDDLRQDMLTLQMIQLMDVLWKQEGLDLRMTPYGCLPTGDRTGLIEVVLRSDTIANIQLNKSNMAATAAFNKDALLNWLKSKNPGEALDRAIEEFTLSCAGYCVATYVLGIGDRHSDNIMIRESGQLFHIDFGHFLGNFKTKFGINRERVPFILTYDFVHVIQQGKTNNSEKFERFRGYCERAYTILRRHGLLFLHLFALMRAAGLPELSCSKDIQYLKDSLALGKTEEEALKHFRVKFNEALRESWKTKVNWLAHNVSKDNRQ
# Chain of PI3K-δ (P27986 whole entry partner, species assumed): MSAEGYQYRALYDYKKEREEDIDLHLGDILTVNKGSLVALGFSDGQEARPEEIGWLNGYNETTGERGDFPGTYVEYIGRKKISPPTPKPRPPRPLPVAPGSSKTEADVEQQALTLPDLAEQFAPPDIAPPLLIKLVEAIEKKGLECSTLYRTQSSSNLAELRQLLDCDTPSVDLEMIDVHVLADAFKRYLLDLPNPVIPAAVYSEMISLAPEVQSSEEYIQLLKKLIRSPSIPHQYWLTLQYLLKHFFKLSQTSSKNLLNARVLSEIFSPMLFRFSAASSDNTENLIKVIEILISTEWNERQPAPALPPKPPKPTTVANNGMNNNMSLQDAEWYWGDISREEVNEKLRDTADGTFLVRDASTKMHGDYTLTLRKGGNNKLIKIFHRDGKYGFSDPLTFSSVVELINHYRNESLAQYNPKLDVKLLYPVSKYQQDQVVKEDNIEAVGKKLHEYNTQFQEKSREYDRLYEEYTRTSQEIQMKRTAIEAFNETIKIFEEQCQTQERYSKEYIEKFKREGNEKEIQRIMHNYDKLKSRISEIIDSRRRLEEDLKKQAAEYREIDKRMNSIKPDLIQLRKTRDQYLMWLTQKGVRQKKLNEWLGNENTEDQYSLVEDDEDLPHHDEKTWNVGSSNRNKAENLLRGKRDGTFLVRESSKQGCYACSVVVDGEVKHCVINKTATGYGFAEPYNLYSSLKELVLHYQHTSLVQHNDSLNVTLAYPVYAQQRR
# Chain of PI3K-β (P42338 whole entry, species assumed): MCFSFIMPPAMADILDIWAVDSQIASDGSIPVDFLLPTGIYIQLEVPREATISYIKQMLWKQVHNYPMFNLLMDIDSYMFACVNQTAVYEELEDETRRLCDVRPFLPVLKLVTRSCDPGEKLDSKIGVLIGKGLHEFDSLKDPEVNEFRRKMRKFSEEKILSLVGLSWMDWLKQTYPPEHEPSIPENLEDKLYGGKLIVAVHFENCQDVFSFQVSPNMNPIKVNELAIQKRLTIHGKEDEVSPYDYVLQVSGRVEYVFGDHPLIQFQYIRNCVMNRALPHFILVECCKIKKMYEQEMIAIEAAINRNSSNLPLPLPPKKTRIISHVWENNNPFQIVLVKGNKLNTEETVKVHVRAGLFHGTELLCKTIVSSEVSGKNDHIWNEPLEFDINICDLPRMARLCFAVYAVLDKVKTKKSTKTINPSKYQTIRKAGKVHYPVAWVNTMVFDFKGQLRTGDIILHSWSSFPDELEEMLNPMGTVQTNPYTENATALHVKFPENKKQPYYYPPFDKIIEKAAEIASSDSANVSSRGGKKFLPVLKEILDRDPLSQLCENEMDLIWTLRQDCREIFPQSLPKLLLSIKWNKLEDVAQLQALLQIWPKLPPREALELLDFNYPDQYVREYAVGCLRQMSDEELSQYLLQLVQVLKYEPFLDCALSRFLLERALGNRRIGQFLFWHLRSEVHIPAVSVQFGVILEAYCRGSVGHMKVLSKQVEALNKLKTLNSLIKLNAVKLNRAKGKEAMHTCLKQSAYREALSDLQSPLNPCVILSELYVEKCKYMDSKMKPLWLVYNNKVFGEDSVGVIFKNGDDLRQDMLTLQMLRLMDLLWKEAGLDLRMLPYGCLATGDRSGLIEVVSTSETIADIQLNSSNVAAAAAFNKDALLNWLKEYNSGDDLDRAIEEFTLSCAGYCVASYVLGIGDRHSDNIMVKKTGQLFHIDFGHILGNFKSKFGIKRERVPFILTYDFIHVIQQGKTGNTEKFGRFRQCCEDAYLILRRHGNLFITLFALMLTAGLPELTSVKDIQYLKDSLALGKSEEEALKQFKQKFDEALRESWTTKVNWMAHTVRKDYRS
# Chain of PI3K-β (P27986 whole entry partner, species assumed): as the sequence (P27986 whole entry partner, species assumed) above
# Chain of CYP3A4 (P08684 whole entry): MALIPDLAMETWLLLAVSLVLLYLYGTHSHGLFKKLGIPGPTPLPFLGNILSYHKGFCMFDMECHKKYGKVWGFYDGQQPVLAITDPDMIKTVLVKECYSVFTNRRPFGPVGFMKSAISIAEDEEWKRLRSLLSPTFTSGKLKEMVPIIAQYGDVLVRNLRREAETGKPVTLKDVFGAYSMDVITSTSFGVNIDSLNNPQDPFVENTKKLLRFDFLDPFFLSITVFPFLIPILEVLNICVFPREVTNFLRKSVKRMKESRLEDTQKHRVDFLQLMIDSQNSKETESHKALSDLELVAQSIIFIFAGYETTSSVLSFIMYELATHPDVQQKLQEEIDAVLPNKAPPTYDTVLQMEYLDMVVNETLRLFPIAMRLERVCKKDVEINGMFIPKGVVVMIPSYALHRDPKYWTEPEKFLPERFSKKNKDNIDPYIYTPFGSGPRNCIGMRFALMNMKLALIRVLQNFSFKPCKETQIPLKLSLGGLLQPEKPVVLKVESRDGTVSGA
# Chain of CYP2C8 (P10632 whole entry): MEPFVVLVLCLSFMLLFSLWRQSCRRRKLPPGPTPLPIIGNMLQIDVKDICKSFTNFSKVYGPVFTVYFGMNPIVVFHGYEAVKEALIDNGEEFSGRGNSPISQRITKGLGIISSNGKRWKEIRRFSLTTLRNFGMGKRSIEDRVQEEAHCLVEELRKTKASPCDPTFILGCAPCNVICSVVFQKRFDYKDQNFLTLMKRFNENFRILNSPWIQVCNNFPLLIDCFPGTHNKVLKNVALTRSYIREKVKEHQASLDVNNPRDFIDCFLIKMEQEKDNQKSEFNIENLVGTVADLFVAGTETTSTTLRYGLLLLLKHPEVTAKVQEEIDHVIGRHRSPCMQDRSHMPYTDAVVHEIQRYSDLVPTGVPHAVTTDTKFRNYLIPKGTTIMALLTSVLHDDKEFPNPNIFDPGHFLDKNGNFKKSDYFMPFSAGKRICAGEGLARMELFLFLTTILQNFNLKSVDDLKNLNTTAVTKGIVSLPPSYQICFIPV
compound,measurement,setting,value
"Cc1cc(-c2cncc([C@@H](O)C(F)(F)F)c2)nc2c1C(=O)N(c1cnn(CC(F)F)c1)C2(C)C [Compound 1, (R)-6-(1-(2,2-difluoroethyl)-1H-pyrazol-4-yl)-4,7,7-trimethyl-2-(5-(2,2,2-trifluoro-1-hydroxyethyl)pyridin-3-yl)-6,7-dihydro-5H-pyrrolo[3,4-b]pyridin-5-one]",Ki,PI3K-α; PI3Kα,280 ± 90 nM
same,Fold Selectivity,PI3K-α; PI3Kγ over PI3Kα,30 fold
same,Ki,PI3K-β; PI3Kβ,220 ± 30 nM
same,Fold Selectivity,PI3K-β; PI3Kγ over PI3Kβ,26 fold
same,Ki,"PI3K-γ; PI3K-gamma, ATP-competitive",8 nM
same,selectivity for PI3K-gamma,"PI3K-γ; against PI3K-alpha, PI3K-beta and PI3K-delta isoforms",greater than 15 fold
same,Fold Selectivity,PI3K-δ; PI3Kγ over PI3Kδ,19 fold
same,Ki,PI3K-δ; PI3Kδ,160 ± 50 nM
same,IC50,"MCF7 cells; MCF7, 96 h, MCF7 Proliferation, 96 hours, PI3K-alpha dependent, read-out: IC50 Avg +/− SD",> 17000 nM
same,IC50,"MCF7 cells; MCF7, MCF7 Proliferation, footnote **, read-out: Individual assay data (IC50)",15700 nM
same,selectivity over PI3K-alpha,MCF7 cells; MCF7 proliferation,> 67 fold
same,% Parent Remaining @ 30 min,CYP1A2,105%
same,% Parent Remaining @ 30 min,CYP2B6,107%
same,% Parent Remaining @ 30 min,CYP2C19,118%
same,% Parent Remaining @ 30 min,CYP2C8,105%
same,% Parent Remaining @ 30 min,CYP2C9,108%
same,% Parent Remaining @ 30 min,CYP2D6,100%
same,% Parent Remaining @ 30 min,CYP2E1,105%
same,Metabolism by recombinant CYPs,CYP3A4; in words,detected only in the incubation with CYP3A4
same,% Parent Remaining @ 30 min,"CYP3A4; recombinant CYP3A4, NADPH",92%
